Assay results taken from PubChem BioAssay AID179 (DTP/NCI, 2004).
Values joined by “and” are separate entries in the source; they are usually repeats but may differ in a detail not shown here. Equal values may be shown once. Active and inactive are the calls of the source.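 The calls were made as follows: active = compounds giving half or more protection of infected cells from virus-caused growth loss, again on retest; inactive = the rest.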 Where a SMILES comes first, the peptide text is derived from it.

Test system: CEM cells HIV-1 protection, formazan growth assay
Assay: NCI AIDS Antiviral Assay
Conditions: for IC50: measured here: growth of uninfected CEM cells
Outline: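 Protection of CEM cells against HIV-1 was scored from cell growth (soluble formazan) across five concentrations, with parallel uninfected cells. Lack of protection may reflect toxicity.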

Row | SMILES | EC50 [µM] | IC50 | outcome
1 | CCCCCCSC[C@H](OC(C)=O)[C@@H](OC(C)=O)[C@@H](OC(C)=O)[C@@H](COC(C)=O)OC(C)=O | > 200 | 53.7 µM | 
2 | COC(=O)[C@]1(C)CCC[C@]2(C)C3CC4OOC3(C=C4C(C)C)CCC21 (some centres undefined) | > 251 | 11.5 µM | 
3 | Cc1ccc(-c2cc(-c3ccccc3)[s+]c3ccc(C)cc23)cc1 | > 200 | 6.03 µM | 
4 | O=C(NP(=O)(N1CC1)N1CC1)c1cc(I)ccc1I | > 200 | 3.98 µM | 
5 | O=C(n1c(=O)n(-c2ccc([N+](=O)[O-])cc2)c(=O)n1C(=O)C(Cl)(Cl)Cl)C(Cl)(Cl)Cl | > 200 | > 200 µM | 
6 | O=S(=O)(Cc1nc2ccccc2s1)c1nc2ccccc2s1 | > 200 | 4.79 µM | 
7 | CC1=NS(=O)(=O)c2cc(Cl)ccc2N1 | > 562 | > 407 µM and 537 µM | 
8 | COP(=O)(OC)C(Cc1c[nH]c2ccccc12)NC(=O)OCc1ccccc1 (centres undefined) | > 200 | > 200 µM | 
9 | CN1C(=O)Nc2ncn(C)c2S1(=O)=O | > 603 | > 603 µM | 
10 | COC(=O)C(C)(C)OCc1ccc(C2NC(=O)N(c3cccc(Cl)c3)C(=O)N2c2cccc(Cl)c2)cc1 (centres undefined) | > 200 | 24 µM | 
11 | COP(=O)(OC)C1c2ccccc2-c2cccc(C(=O)O)c21 (centres undefined) | > 200 | > 200 µM | 
12 | COC12CCCN1c1ccn(Cc3ccccc3)c(=O)c1C2=O (centres undefined) |  |  | inactive
13 | CSS(=O)(=O)C(c1ccccc1)c1ccccc1 | > 112 | 49 µM | 
14 | COC(=O)/C=C\C(C#N)(C#N)N=Cc1ccc(Br)s1 | > 2 | 1.1 µM | 
15 | COc1cccc(C=C2C(=O)NC(=O)NC2=O)c1 | > 145 | > 145 µM | 
16 | CSC1=C(C#N)C(=O)N(c2ccc(C)cc2)C(=S)C1C#N (centres undefined) | > 200 | 174 µM | 
17 | CCC(C)(CC(=O)O)CC(=O)OC[C@]12CC[C@@H](C(C)C)[C@@H]1[C@H]1CC[C@@H]3[C@@]4(C)CC[C@H](OC(=O)CC(C)(CC)CC(=O)O)C(C)(C)[C@@H]4CC[C@@]3(C)[C@]1(C)CC2 (some centres undefined) | > 200 | 7.08 µM | 
18 | CCCC/C(C)=N/NC(N)=S |  |  | inactive
19 | COc1ccc2oc(=N)c(C(=O)Nc3ccccc3)cc2c1 | > 200 | 12 µM | 
20 | COc1cc2c(cc1OC)C1(c3ccccc3)ON=C(c3ccccc3)N1CS2 (centres undefined) | > 9.33 | > 9.33 µM | 
21 | CCOC(=O)c1nc2ccccc2nc1Nc1cc(OC)c(OC)c(OC)c1 | > 200 | > 200 µM | 
22 | COC(=O)C12C3C=CC(O3)C1C1C=CC2O1 (centres undefined) |  |  | inactive

Row | SMILES | EC50 [µM] | IC50 | outcome
23 | CCN(CC)CC(C(C)=O)C(c1ccccc1)c1c(O)c2ccccc2oc1=O (centres undefined) | > 43.7 | > 43.7 µM | 
24 | O=c1[nH]c2ccccc2c(O)c1Cc1c(O)c2ccccc2[nH]c1=O | > 25.1 | > 25.1 µM | 
25 | CCCC(CC)c1c(O)c(O)c(C(CC)CCC)c(C(CC)CCC)c1C(CC)CCC (centres undefined) | > 100 | 15.5 µM | 
26 | CC1=C(CO)C(=O)O[C@@H]([C@@H](CO)[C@H]2CCC3C4C[C@@H](O)[C@@]5(O)CC=CC(=O)[C@]5(C)C4CC[C@@]32C)C1 (some centres undefined) |  |  | inactive
27 | CC(C)OC(=O)C1Cc2c([nH]c3ccccc23)C(c2ccccc2)N1 (centres undefined) |  |  | inactive
28 | O=C(c1ccccc1)c1nc2ccc(Cl)cc2c2c1Cc1ccccc1-2 | > 2.95 | > 2.95 µM | 
29 | CCOC(=O)CSC1NC(C(=O)OC)CC1OC (centres undefined) | > 200 | > 200 µM | 
30 | COCOC1CCCC[C@@]1(OCCOCCO[C@@]1(c2ccccc2)CCCC[C@H]1OCOC)c1ccccc1 (some centres undefined) | > 5.01 | > 5.01 µM | 
31 | O=C1CC(NC(=O)C(F)(F)F)c2c(Br)sc(N3CCOCC3)c21 (centres undefined) | > 200 | > 200 µM | 
32 | COC(=O)C1(C(=O)OC)N=C(C)OC1/C=C/c1ccccc1 (centres undefined) | > 200 | > 100 µM | 
33 | COC(=O)C1C(O)C(C)C(O)C(C)C=C(C)C2=C3C(=C(C)C(=O)c4c(O)c(c(C)c(OC(C)=O)c43)NC(=O)C(C)=C/C=C\C(C)C(O)C(C)C1O)OCO2 (centres undefined) | > 77.6 |  | 
34 | CCOC(=O)NC(Nc1c(F)c(F)c(F)c(F)c1F)(C(F)(F)F)C(F)(F)F | > 200 | 141 µM | 
35 | COc1ccc(NC(C)=O)cc1N1C(=O)/C(=C\c2cc(OC)c(OC)c(OC)c2)S(=O)(=O)C1c1ccccc1 (centres undefined) | > 200 | 91.2 µM | 
36 | O=c1c2cc3c(=O)n(-c4ccccc4Cl)c(=O)c3cc2c(=O)n1-c1ccccc1Cl | > 40.7 | > 40.7 µM | 
37 | Nc1c(S(=O)(=O)c2ccccc2)c2nc3ccccc3nc2n2c1nc1ccccc12 | > 8.91 | > 8.91 µM | 
38 | Cc1ccc(C(=O)OC[C@H]2CC[C@@H](n3cc(N(C)C4CCCCC4)c(=O)[nH]c3=O)O2)cc1 | > 200 | 53.7 µM | 
39 | CC1=C(/C(C)=C\C(=O)O)CC2C(C)C(=O)CO[C@H]2C1 (some centres undefined) |  |  | inactive
40 | CCCCCCCC1=NN(c2ccc(S(=O)(=O)O)cc2)C(=O)C1N=O (centres undefined) | > 200 | > 200 µM | 
41 | CN(C)CCC[N+]1=Nc2cccc3cccc(c23)N1 |  |  | inactive
42 | CN(C)c1ccc(/C=C/c2ccnc3c2ccc2ccccc23)cc1 | > 22.4 | 13.5 µM | 
43 | Cc1ccc(/C=N/NS(=O)(=O)c2ccc(/C=C3\NC(=O)NC3=O)cc2)cc1 | > 200 | > 200 µM | 
44 | Cc1c(N=Nc2ccccc2)c(-c2ccccc2)n(C2OC(CO)C(O)C(O)C2O)c(=S)c1C#N (centres undefined) | > 200 | 15.1 µM | 

Row | SMILES | EC50 [µM] | IC50 | outcome
45 | CN1C(c2ccccc2)CC(=NOCc2ccccc2)CC1c1ccccc1 (centres undefined) | > 200 | 8.71 µM | 
46 | Cc1nc2ccc(N)cc2[nH]c1=O | > 741 | > 741 µM | 
47 | N#C/C(=C\c1cc(O)c(O)c(O)c1)C(=O)NCCCCCNC(=O)/C(C#N)=C/c1cc(O)c(O)c(O)c1 | > 200 | 38 µM | 
48 | N#Cc1c2c(c(Nc3ccc(Cl)cc3)n3c1nc1ccccc13)CCCC2 | > 200 | 11.5 µM | 
49 | C[C@@H]1S[C@H](c2c(F)cccc2Cl)n2c1nc1ccccc12 | 3.55 | 12.9 µM | 
50 | CC(=Nc1ccccc1C(=O)O)c1c(O)ccc2c(C)cc(=O)oc12 | > 107 | > 107 µM | 
51 | C/C(C=C(C#N)C#N)=C\c1ccc(C)cc1 | > 1200 | > 1200 µM | 
52 | O=C1NNC=Nc2ccc(cc2)S(=O)(=O)c2ccc(cc2)N=CNNC1=O | > 224 | 162 µM | 
53 | CN(C)C(=O)c1nnsc1NN=O | > 200 | > 200 µM | 
54 | Cc1cn(C(Cc2ccccc2)OCC[Se]c2ccccc2)c(=O)[nH]c1=O (centres undefined) | 100 | > 200 µM | 
55 | COc1cccc(C=O)c1[O-].[O]=[U](=[O])([OH2+])[OH2+] | > 79.4 | 39.8 µM | 
56 | CC(=O)C1=CCC2c3[nH]c4ccccc4c3CCN2C1 (centres undefined) | > 70.8 | > 70.8 µM | 
57 | O=C(Nc1cccc(C(F)(F)F)c1)C(=O)C1NC(=S)NC1=O (centres undefined) | > 191 | > 191 µM | 
58 | CC1=NN(c2ccccc2)C(=O)C1N=Nc1ccc(S(N)(=O)=O)cc1 (centres undefined) |  |  | inactive
59 | C=C1CN(S(=O)(=O)c2ccc(C)cc2)CCCN(C2CCCC2)CCCN(S(=O)(=O)c2ccc(C)cc2)C1 | > 200 | 4.07 µM | 
60 | O=C(O)c1cccc(S(=O)(=O)c2ccccc2)c1 | > 200 | > 200 µM | 
61 | C=C1CC[C@@H]2C(C)(C)C(O)CCC2(C)C1COc1ccc2ccc(=O)oc2c1 (some centres undefined) | > 67.6 | 36.3 µM | 
62 | N#CC(NNC(=O)Cc1ccccc1)c1ccc([N+](=O)[O-])cc1 (centres undefined) | > 115 | > 115 µM | 
63 | Oc1cc(Cl)cc2cccnc12 |  |  | inactive
64 | COC(=O)C/C(C(=O)OC)=C1\CCC2=C1N1CCCC1C2(CC(=O)OC)C(=O)OC (centres undefined) | > 162 | > 162 µM | 
65 | Cc1ccc(C=C2C(=O)NC(=O)NC2=O)cc1 | > 155 | > 155 µM | 
66 | O=c1[nH]c(=S)[nH]n1C(=S)n1[nH]c(=S)[nH]c1=O | > 200 | > 200 µM | 

Row | SMILES | EC50 [µM] | IC50 | outcome
67 | Cc1cc(C)c(S(=O)(=O)N(CCCCN)OCCCN)c(C)c1 | > 200 | 28.2 µM | 
68 | COc1cccc2c1OC1c3ccccc3OCC1C2 (centres undefined) | > 200 | 97.7 µM | 
69 | O=Cc1cc2sc(C=O)cc2s1 |  |  | inactive
70 | N#CC1=C(N2CCCC2)NC(=O)CC1=O | > 200 | > 200 µM | 
71 | Cc1ccc(NC(=O)C(=O)CC(=O)c2ccccc2)cc1C | > 4.9 | > 4.9 µM | 
72 | COc1cc(C(=O)O)c(C(=O)c2ccc(C#N)cc2)cc1OC | > 200 | > 200 µM | 
73 | COCCN1C2=CCCCC2=Nc2c(N)nc(N)nc21 |  |  | inactive
74 | COC(=O)CP(=O)(OC)OCC(F)(F)F (centres undefined) | > 1000 | 832 µM | 
75 | CC(C)CC(NC(=O)C(CO)NC(=O)C(CCCCN)NC(=O)C(CCCCN)NC(=O)C(NC(=O)CNC(=O)C(C)NC(=O)C(CCCN=C(N)N)NC(=O)C(NC(=O)C(N)C(C)C)C(C)C)C(C)C)C(=O)O (centres undefined) (H-VVRAGVKKSL-OH; configuration not given here) |  |  | inactive
76 | COc1cc(-c2cc(-c3cc(C)cc(Cl)c3O)nc3ncnc(N)c23)ccc1O | > 200 | 10.7 µM | 
77 | C1CCC(N2CSCSC2)CC1 | > 200 | 107 µM | 
78 | O=C1c2ccccc2C(=O)c2c(SSc3cccc4c3C(=O)c3ccccc3C4=O)cccc21 | > 200 | > 200 µM | 
79 | c1ccc2c(c1)n1nnnc1c1nnnn21 | > 33.9 | > 33.9 µM | 
80 | Clc1cc2nnn(C3CCCCO3)c2cc1Cl (centres undefined) | > 200 | > 200 µM | 
81 | O=C(Nc1ccccc1C(=O)O)C(=O)C(C(=O)c1ccccc1-c1ccccc1)C1OC(=O)c2ccccc21 (centres undefined) | > 50.1 | 25.1 µM | 
82 | C=CCC1[C@@H](C(C)(C)C(C(C)=O)C(=O)C(=O)OC)OC(C(C)(C)C)N1C(=O)OC (some centres undefined) | > 63.1 | > 63.1 µM | 
83 | O=C1NC2=NN=C(c3ccc(Br)cc3)CN2NC12c1ccccc1-c1ccccc12 | > 100 | > 100 µM | 
84 | O=c1c2cccc3cccc(c4n1CCCN=4)c32 | > 200 | 17 µM | 
85 | COc1ccc(C2Oc3ccc(Cl)cc3C=C2[N+](=O)[O-])cc1 (centres undefined) | > 200 | 0.447 µM | 
86 | COc1cnn(-c2ccccc2)c(=O)c1SCc1ccc(Cl)c(Cl)c1 | > 34.7 | 27.5 µM | 
